Patent US8685674B2, “Chondroitin synthase, method for producing the same and method for producing saccharide chain-extended chondroitin” (Glytech, Inc., priority 2001, dated 2014)
One block for each compound: values may come before it.

Tests used:
Assay type in all cases: biochemical
[1] = target: T1, soluble chondroitin synthase fused with a cleavable insulin signal sequence and a protein A (Homo sapiens, UniProt Q86X52, R588T); test: GlcUA transferase I (GlcAT-I) assay, UDP-[14C]GlcUA as donor; details: enzyme-bound beads, MES pH 6.5, 2 mM MnCl2, 37° C., one hour, average of two experiments
T1 construct: ID; NO: 2; made in house; host or cells: COS-1 cells (transient transfection; secreted fusion protein captured from the medium on IgG-Sepharose beads)
T1 sequence (Q86X52 47-802 R588T): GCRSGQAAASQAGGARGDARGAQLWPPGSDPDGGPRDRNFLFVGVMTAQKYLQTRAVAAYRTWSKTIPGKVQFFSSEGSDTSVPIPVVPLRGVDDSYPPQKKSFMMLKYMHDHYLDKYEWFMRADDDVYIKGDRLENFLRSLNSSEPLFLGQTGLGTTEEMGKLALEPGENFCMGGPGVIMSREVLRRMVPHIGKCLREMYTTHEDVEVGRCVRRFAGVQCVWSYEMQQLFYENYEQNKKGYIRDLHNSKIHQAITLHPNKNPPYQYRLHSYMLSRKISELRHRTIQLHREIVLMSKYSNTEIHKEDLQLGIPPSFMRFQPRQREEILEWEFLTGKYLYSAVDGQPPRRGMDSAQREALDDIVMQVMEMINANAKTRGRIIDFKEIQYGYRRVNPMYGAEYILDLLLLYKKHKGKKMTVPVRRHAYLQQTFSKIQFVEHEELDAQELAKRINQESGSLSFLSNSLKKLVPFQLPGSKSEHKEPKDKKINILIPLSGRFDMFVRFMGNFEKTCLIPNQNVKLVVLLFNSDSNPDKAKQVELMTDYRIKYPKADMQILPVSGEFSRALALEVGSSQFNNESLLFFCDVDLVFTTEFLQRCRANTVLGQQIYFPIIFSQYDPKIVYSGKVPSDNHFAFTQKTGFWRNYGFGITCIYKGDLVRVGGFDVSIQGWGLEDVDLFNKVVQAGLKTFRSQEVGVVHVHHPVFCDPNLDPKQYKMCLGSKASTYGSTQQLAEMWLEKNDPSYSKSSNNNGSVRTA
Method: (§1) By using FuGENE (Trademark) 6 (Roche Molecular Biochemicals Co., Tokyo), an expression plasmid (6.7 μg) was transfected into a COS-1 cell on a 100 mm plate, in accordance with a manual of the manufacture. On the second day from the transfection, 1 ml of an incubation liquid was collected and incubated together with 10 μL of IgG-Sepharose (Amersham Pharmacia Biotech) at 4° C. for one hour. Beads of the IgG-Sepharose was collected by centrifugation, and then washed with an assay buffer. After that, the beads were resuspended in an assay buffer of the same kind as the assay buffer. The beads were used for assaying GalNAc transferase, GlcUA transferase, and Gal transferase. That is, a fused protein occurred in the incubation liquid was absorbed by IgG-Sepharose so as to remove glycosyltransferases in the incubation liquid. […]
(§2) Assay of GlcUA transferase I (GlcAT-I), which is necessary for synthesis of tetrasaccharide for the linkage region, was carried out with a mixture of, in 30 μL in total, 10 μL of the resuspended beads, 1 nmol Galβ1-3Galβ1-4Xyl, 14.3 μM UDP-[^14C]GlcUA (1.46×10^5 dpm), 50 mM MES buffer, pH6.5, and 2 mM MnCl2 (FEBS lett. 459, 415-420 (1999)). […] The thus collected labeled products were quantified by liquid scintillation spectroscopy.

[2] = target: T1, soluble chondroitin synthase fused with a cleavable insulin signal sequence and a protein A; test: GalNAc transferase assay, UDP-[3H]GalNAc as donor; details: for ACTIVITY (receptor specificity): enzyme-bound beads, MES pH 6.5, 10 mM MnCl2, 37° C., one hour, average of two experiments
Method: By using FuGENE (Trademark) 6 (Roche Molecular Biochemicals Co., Tokyo), an expression plasmid (6.7 μg) was transfected into a COS-1 cell on a 100 mm plate, in accordance with a manual of the manufacture. On the second day from the transfection, 1 ml of an incubation liquid was collected and incubated together with 10 μL of IgG-Sepharose (Amersham Pharmacia Biotech) at 4° C. for one hour. Beads of the IgG-Sepharose was collected by centrifugation, and then washed with an assay buffer. After that, the beads were resuspended in an assay buffer of the same kind as the assay buffer. The beads were used for assaying GalNAc transferase, GlcUA transferase, and Gal transferase. That is, a fused protein occurred in the incubation liquid was absorbed by IgG-Sepharose so as to remove glycosyltransferases in the incubation liquid. Then, by using the enzyme bound beads as an enzyme source, glycosyltransferase activity of the fused protein that was bound to the beads was assayed with various receptor substrates and donor substrates.
As a receptor for GalNAc transferase, a polymer (167 μg) of chondroitin, α-thrombomodulin (1 nmol), or GlcUAβ1-3Galβ1-3Galβ1-4Xylβ1-0-Ser (1 nmol) was used. Moreover, as a receptor for GlcUA transferase, the polymer (167 μg) of chondroitin or Galβ1-3Galβ1-4Xylβ (1 nmol) was used. As a receptor of Gal transferase, sheep submandibular asialomucin (300 μg) or GlcNAcβ1-3Galβ1-4GlcNAcβ1-3Galβ1-4GlcNAc (1 nmol) was used. […]
as §2

[3] = target: T1, soluble chondroitin synthase fused with a cleavable insulin signal sequence and a protein A; test: GlcUA transferase II (GlcAT-II) assay, chondroitin polymer as receptor, UDP-[14C]GlcUA as donor
Method: as §1, §2

[4] = target: T1, soluble chondroitin synthase fused with a cleavable insulin signal sequence and a protein A; test: Gal transferase assay, UDP-[3H]Gal as donor; details: enzyme-bound beads, MES pH 6.5, 10 mM MnCl2, 37° C., one hour, average of two experiments
Method: as §1, §2

Compound: OC[C@H]1O[C@@H](O[C@H]2[C@@H](O)[C@@H](CO)O[C@@H](O[C@@H]3COC(O)[C@H](O)[C@H]3O)[C@@H]2O)[C@H](O)[C@@H](O)[C@H]1O (stereo partly shown) [Galβ1-3Galβ1-4Xyl]
ACTIVITY (receptor specificity) [1]: ND (ND: Not Detected (<0.1 pmol/ml medium/time))

Compound: N[C@@H](CO[C@@H]1OC[C@@H](O[C@@H]2O[C@H](CO)[C@H](O)[C@H](O[C@@H]3O[C@H](CO)[C@H](O)[C@H](O[C@@H]4O[C@H](C(=O)O)[C@@H](O)[C@H](O)[C@H]4O)[C@H]3O)[C@H]2O)[C@H](O)[C@H]1O)C(=O)O [GlcUAβ1-3Galβ1-3Galβ1-4Xylβ-O-Ser, GlcUAβ1-3Galβ1-3Galβ1-4Xylβ1-O-Ser]
ACTIVITY (receptor specificity) [2]: ND (ND: Not Detected (<0.1 pmol/ml medium/time))

glycosyltransferase activity detected or not (in words) [2]: Activities were detected
ACTIVITY (receptor specificity) [2]: 1.4 pmol/ml medium/time
glycosyltransferase activity detected or not (in words) [3]: Activities were detected
ACTIVITY (receptor specificity) ([3]; enzyme-bound IgG-Sepharose beads, pH 5.6, 10 mM MnCl2, 37° C., one hour, average of two experiments): 5.2 pmol/ml medium/time
Compound: Chondroitin

Compound: GlcNAcβ1-3Galβ1-4GlcNAcβ1-3Galβ1-4GlcNAc
ACTIVITY (receptor specificity) [4]: ND (ND: Not Detected (<0.1 pmol/ml medium/time))
